Assay results: ChEMBL document CHEMBL1201862, “PubChem BioAssay data set” (2004)
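Assay format: 96-well plates, 48-hour exposure. GI50 is the concentration that inhibits growth by half.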 The source made the active and inactive calls. Rule as the data show it: active = GI50 up to about 1.1 µM and inactive = higher.

Key:
Assay in all cases: inhibition of tumour cell growth, NCI panel, 48 h
[1] = tested on: 786-0
[2] = tested on: ACHN
[3] = tested on: CAKI-1
[4] = tested on: DU-145
[5] = tested on: HCT-116
[6] = tested on: K562
[7] = tested on: KM12
[8] = tested on: LOX IMVI
[9] = tested on: MDA-MB-435
[10] = tested on: NCI-H23
[11] = tested on: NCI-H522
[12] = tested on: OVCAR-5
[13] = tested on: RXF 393
[14] = tested on: SK-MEL-28
[15] = tested on: SNB-19
[16] = tested on: SR
[17] = tested on: T47D
[18] = tested on: U-251
[19] = tested on: UACC-62
[20] = tested on: UO-31

Measured: GI50

COP(=O)(OC)C(O)/C=C(\Cl)c1ccc(Cl)cc1 (stereo not given)
inactive: [1] 19.2 µM | [2] 85.1 µM | [3] 69.2 µM | [4] > 100 µM | [5] 18.4 µM | [6] 43.5 µM | [7] > 100 µM | [8] 19.6 µM | [9] 40.7 µM | [10] 21.2 µM | [11] 49.1 µM | [12] > 100 µM | [13] 78.2 µM | [14] > 100 µM | [15] 75.5 µM | [16] 21.3 µM | [17] 25.3 µM | [18] 53.2 µM | [19] 56 µM | [20] 71 µM

CN(O)C(=O)/C=C/c1ccc(OCc2cccc(Cl)c2)cc1
inactive: [1] 18.7 µM | [2] 14.5 µM | [3] 26.4 µM | [4] 20.8 µM | [5] 16.8 µM | [6] 36.1 µM | [7] 17.7 µM | [8] 11.2 µM | [9] 32.2 µM | [10] 16.3 µM | [11] 25.7 µM | [12] 39.7 µM | [13] 30.7 µM | [14] 38.5 µM | [15] 42.5 µM | [16] 7.06 µM | [17] 20.1 µM | [18] 22 µM | [19] 15 µM | [20] 10.1 µM

Nc1ccc(Oc2ccc(C3(c4ccc(Oc5ccc(N)c(O)c5)cc4)C4CC5CC(C4)CC3C5)cc2)cc1O
inactive: [1] 1.82 µM | [2] 1.82 µM | [3] 2.47 µM | [4] 1.82 µM | [5] 1.5 µM | [6] 2.04 µM | [7] 1.91 µM | [8] 1.81 µM | [9] 2.02 µM | [10] 1.91 µM | [11] 1.73 µM | [12] 2.35 µM | [13] 1.73 µM | [14] 1.84 µM | [15] 2.4 µM | [16] 1.17 µM | [17] 3.27 µM | [18] 1.7 µM | [19] 2.69 µM | [20] 1.92 µM

O=C1O[C@H]2[C@H](O)[C@@H](OC(=O)c3cc(O)c(O)c4c3[C@@H]3C1=CC(=O)C(O)(O)C3(O)O4)[C@H](OC(=O)c1cc(O)c(O)c(O)c1)O[C@@H]2CO (stereo not given in full) [FUROSIN]
inactive: [1] > 100 µM | [2] 41.6 µM | [3] > 100 µM | [4] > 100 µM | [5] 74.8 µM | [6] 38.1 µM | [7] 26.7 µM | [8] 48 µM | [9] 39.5 µM | [10] > 100 µM | [11] 45.4 µM | [12] > 100 µM | [13] > 100 µM | [14] > 100 µM | [15] > 100 µM | [16] 32.1 µM | [17] > 100 µM | [18] > 100 µM | [19] 75.7 µM | [20] 57.1 µM
